Measurements reported in US20110039762A1, “TARGETED ANTIMICROBIAL MOIETIES” (C3 JIAN, INC., priority 2009, published 2011).
Entries after “also recorded” stand apart in the source; their conditions may differ.

Columns and labels:
[1] = system: microorganisms (e.g., bacteria, yeasts, fungi); test: Targeting peptide binding to target microorganisms (Table 3); details: microorganism(s) the targeting peptide binds, preferably 1x PBS
M. luteus = test: Kill or inhibit growth/proliferation; morphology, biofilm and growth disruption (Tables 5, 6); format: cell-based, Micrococcus luteus; design: key: A: Peptide aggregates; B: Less hyphal formation; Clumps; Diffuse clumps and small polyps; F: Diffuse growth; H: Thin; I: Growth inhibition; Microcolony formation; Rippled; Small polyps; Thick; W: Halo formation on top, microlonies on bottom; also: test concentration or dose not given here
microorganisms = test: Peptides having multiple activities (targeting/binding, antimicrobial, growth or phenotype altering)
Description: In certain embodiments, peptides described herein can have multiple activities. Thus for example, a peptide can have both binding/targeting activity and antimicrobial activity. Such peptides can be used, e.g., in a chimeric construct, for any or all of these properties. Thus, for example, a peptide designated “B” in Table 8 can be used as a targeting peptide. If it is also designated G or M it can also be used for antimicrobial activity.

S. epidermidis = test: Kill or inhibit growth/proliferation; morphology, biofilm and growth disruption (Tables 5, 6); format: cell-based, Staphylococcus epidermidis; design: key: A: Peptide aggregates; B: Less hyphal formation; Clumps; Diffuse clumps and small polyps; F: Diffuse growth; H: Thin; I: Growth inhibition; Microcolony formation; Rippled; Small polyps; Thick; W: Halo formation on top, microlonies on bottom; also: test concentration or dose not given here
MRSA = test: as above; format: cell-based, Methicillin-resistant Staphylococcus aureus; design: key: A: Peptide aggregates; B: Less hyphal formation; Clumps; Diffuse clumps and small polyps; F: Diffuse growth; H: Thin; I: Growth inhibition; Microcolony formation; Rippled; Small polyps; Thick; W: Halo formation on top, microlonies on bottom
E. faecalis = test: as above; format: cell-based, Enterococcus faecalis; design: key: A: Peptide aggregates; B: Less hyphal formation; Clumps; Diffuse clumps and small polyps; F: Diffuse growth; H: Thin; I: Growth inhibition; Microcolony formation; Rippled; Small polyps; Thick; W: Halo formation on top, microlonies on bottom; also: test concentration or dose not given here
E. coli = test: as above; format: cell-based, Escherichia coli; design: key: A: Peptide aggregates; B: Less hyphal formation; Clumps; Diffuse clumps and small polyps; F: Diffuse growth; H: Thin; I: Growth inhibition; Microcolony formation; Rippled; Small polyps; Thick; W: Halo formation on top, microlonies on bottom; also: test concentration or dose not given here
S. pneumoniae = test: as above; format: cell-based, Streptococcus pneumoniae; design: key: A: Peptide aggregates; B: Less hyphal formation; Clumps; Diffuse clumps and small polyps; F: Diffuse growth; H: Thin; I: Growth inhibition; Microcolony formation; Rippled; Small polyps; Thick; W: Halo formation on top, microlonies on bottom
[2] = binding in aqueous buffers depending on peptide solubility
[3] = peptide binding conducted in aqueous buffers varied by peptide solubility
For Organism, effect in this document: test concentration or dose not given here.

Substance	Target(s) [1, 2]	Organism, effect (M. luteus)	Activities (microorganisms)	Organism, effect (S. epidermidis)	Organism, effect (MRSA)	Organism, effect (E. faecalis)	Organism, effect (E. coli)	Target(s) [1, 3]	Organism, effect (S. pneumoniae)
VWENRKKYLENEIERHNVFLKLGQEVIKGLNALASRGR [PF-257]	S. epidermidis	M. luteus (R)	G B	–	–	–	–	–	–
PF-234: peptide having multiple activities (RTPYILRS; Peptide with targeting and/or antimicrobial activity)	S. epidermidis; also recorded: M. luteus	M. luteus (T)	G B	–	–	–	–	–	–
PF-249: peptide having multiple activities (INSRYKISF; Peptide with targeting and/or antimicrobial activity)	S. epidermidis; also recorded: M. luteus	M. luteus (R)	G B	–	–	–	–	–	–
PF-212: peptide having multiple activities (NDSKASN; Peptide with targeting and/or antimicrobial activity)	M. luteus; also recorded: P. aeruginosa	M. luteus (M)	G B	–	–	–	–	–	–
PF-274 (SIQEAEKIIKNDPFYIHDVADYDFMWFEPSKSLEEIKEFV; Peptide with targeting and/or antimicrobial activity)	–	M. luteus (M)	–	–	–	–	–	–	–
PF-125: peptide having multiple activities (YVVGALVILAVAGLIYSMLRKA; Peptide with targeting and/or antimicrobial activity)	–	M. luteus (C)	G B	S. epidermidis (D)	–	–	–	–	–
PF-235: peptide having multiple activities (GIPFSKPHKRQVNYMKSDVLAYIEQNKMAHTA; Peptide with targeting and/or antimicrobial activity)	S. epidermidis; also recorded: M. luteus	M. luteus (T)	G B	–	–	–	–	–	–
PF-224: peptide having multiple activities (DYFYITLSQKNTF; Peptide with targeting and/or antimicrobial activity)	S. epidermidis; also recorded: P. aeruginosa; also recorded: A. baumannii	M. luteus (T)	G B	–	–	–	–	–	–
PF-444: peptide having multiple activities (chain 1 MAAKLWEEGKMVYASSASMTKRLKLAMSKV; chain 2 MAAKLWEEGKMVYASSASMTKRLKLAMSKV; Peptide with targeting and/or antimicrobial activity)	–	–	G B	S. epidermidis (C)	MRSA (C)	E. faecalis (C)	E. coli (R)	M. luteus; also recorded: C. albicans; also recorded: S. pneumoniae; also recorded: C. jeikeium	S. pneumoniae (R)
EILNNNQVIKELTMKYKTQFESNLGGWTARARR [PF-580]	–	M. luteus (C)	G B	S. epidermidis (M)	MRSA (M)	–	–	–	S. pneumoniae (C)
PF-518: peptide having multiple activities (chain 1 SFYSKYSRYIDNLAGAIFLFF; chain 2 SFYSKYSRYIDNLAGAIFLFF; Peptide with targeting and/or antimicrobial activity)	–	–	G B	S. epidermidis (C)	MRSA (C)	E. faecalis (C)	E. coli (R)	S. epidermidis and E. coli and P. aeruginosa and C. albicans and MRSA and S. pneumoniae and E. faecalis	S. pneumoniae (M)
PF-276: peptide having multiple activities (LDLALSTNSLNLEGFSF; Peptide with targeting and/or antimicrobial activity)	S. epidermidis	M. luteus (M)	G B	–	–	–	–	–	–
PF-270: peptide having multiple activities (MYLTPYAWIAVGSIFAFSVTTIKIGDQNDEKQKSHKNDVHKR; Peptide with targeting and/or antimicrobial activity)	S. epidermidis; also recorded: M. luteus; also recorded: P. aeruginosa	M. luteus (H)	G B	–	–	–	–	–	–
PF-460: peptide having multiple activities (chain 1 MEHVLPFQNTPPNIVIIYKDFTHLKSITFS; chain 2 MEHVLPFQNTPPNIVIIYKDFTHLKSITFS; Peptide with targeting and/or antimicrobial activity)	–	–	G B	S. epidermidis (C)	MRSA (C)	E. faecalis (C)	E. coli (H)	–	S. pneumoniae (R)
PF-357: peptide having multiple activities (chain 1 MLTIIIGFIFWTMTLMLGYLIGEREGRKHE; chain 2 MLTIIIGFIFWTMTLMLGYLIGEREGRKHE; Peptide with targeting and/or antimicrobial activity)	–	M. luteus (C)	G B	S. epidermidis (M)	MRSA (M)	–	–	–	S. pneumoniae (M)
PF-452: peptide having multiple activities (chain 1 MNNWIKVAQISVTVINEVIDIMKEKQNGGK; chain 2 MNNWIKVAQISVTVINEVIDIMKEKQNGGK; Peptide with targeting and/or antimicrobial activity)	–	–	G B	S. epidermidis (C)	MRSA (C)	E. faecalis (C)	E. coli (C)	M. luteus; also recorded: P. aeruginosa; also recorded: C. albicans; also recorded: S. pneumoniae; also recorded: E. faecalis; also recorded: C. jeikeium; also recorded: M. smegmatis	S. pneumoniae (R)
PF-215: peptide having multiple activities (ELKITNYNVNTVLYRYYKWGNDLCE; Peptide with targeting and/or antimicrobial activity)	S. epidermidis; also recorded: M. luteus; also recorded: P. aeruginosa; also recorded: A. baumannii	M. luteus (T)	G B	–	–	–	–	–	–
MGIIAGIIKVIKSLIEQFTGK [PF-007]	–	M. luteus (A)	G B	S. epidermidis (A)	MRSA (R)	E. faecalis (A)	E. coli (A)	–	–
PF-271: peptide having multiple activities (AAQPQTTSP; Peptide with targeting and/or antimicrobial activity)	S. epidermidis; also recorded: M. luteus; also recorded: P. aeruginosa; also recorded: A. baumannii	M. luteus (T)	G B	–	–	–	–	–	–
PF-250 (SEDIFGRLANEKANGLEELRKIRLKQ; Peptide with targeting and/or antimicrobial activity)	–	M. luteus (T)	–	–	–	–	–	–	–
LMFFSENMDKRDTLSGKFRYFAGSKVIKLMNWLSENGK [PF-226]	A. baumannii	M. luteus (T)	G B	S. epidermidis (C)	–	–	–	–	–
PF-255: peptide having multiple activities (DHKINESQHNPFRSDSNKQNVDFF; Peptide with targeting and/or antimicrobial activity)	P. aeruginosa	M. luteus (M)	G B	–	–	–	–	–	–
PF-264 (MQSLSNRQSLIASYILMGIFLSFGYPPASLSKFFCRLSHL; Peptide with targeting and/or antimicrobial activity)	–	M. luteus (H)	–	–	–	–	–	–	–
PF-451: peptide having multiple activities (chain 1 MVNYIIGSYMLYREQNNNEALRKFDITLAM; chain 2 MVNYIIGSYMLYREQNNNEALRKFDITLAM; Peptide with targeting and/or antimicrobial activity)	–	–	G B	S. epidermidis (C)	MRSA (C)	E. faecalis (C)	E. coli (R)	–	S. pneumoniae (C)
